Assay results taken from US20190015484A1, “NICOTINE-DEGRADING ENZYMES FOR TREATING NICOTINE ADDICTION AND NICOTINE POISONING” (priority 2015, published 2019).
Where two headings read alike, the source gives them in different places.

What was measured:
Swiss Webster mice = experiment: Toxicity of reaction product to mice; type: in vivo, mouse
Method: Short-term experiments were performed by administrating 35, 70 140 ng of […] to male Swiss Webster mice (about 20 g, n=4 for each group) daily. Their viability and behavior was recorded.
Long-term experiments were performed by administrating 200 ng to the same species of mice (n=7) every other day for 5 weeks. At the end of the 5th week, the mice were euthanized and autopsied.
The clinical utility of an enzyme also relates to the toxicity and addictive properties of the reaction products. […] However, it has been reported as a likely precursor to 4-(methylnitrosamino)-1-(3-pyridyl)-1-butanone (NNK), a potential carcinogen.^20 To investigate any harmful effects of 4, toxicology studies were performed in which mice were administered pseudooxynicotine (4).
Mice received 35, 70 or 140 ng of compound 4 daily, which is representative of the typical range of nicotine amounts (4-72 ng/mL) found in smokers,^19 if fully converted to compound 4. […] In addition, the long-term exposure (5-weeks) of 4 was evaluated where the mice were dosing every other day with 200 ng compound 4 per dose.

[1] = humans, cited from earlier work
[2] = target: neuronal nicotinic acetylcholine receptors (nAChR); settings: read-out: Ki for nAChr; cited from earlier work
[3] = target: neuronal nicotinic acetylcholine receptors (nAChR); settings: cited from earlier work

Row | SMILES | health and autopsy, long-term exposure (Swiss Webster mice; mice, 200 ng every other day, 5 weeks) | health and behavior, short-term (Swiss Webster mice; mice, 35, 70 or 140 ng daily, five days) | terminal half-life ([1]; regular smoking) | elimination half-life ([1]; tobacco use) | Ki [2] | EC50 ([3]; read-out: EC50 for activation of nAChr, activation) | EC50 ([3]; read-out: EC50 for desensitization of nAChr, desensitization)
1 | CNCCCC(=O)c1cccnc1 [compound 4, 4-(methylamino)-1-(pyridine-3-yl)butan-1-one] | remained healthy and autopsies did not reveal any sign of neoplasia or organ damage | none of the mice exhibited any evidence of health or behavioral problems |  |  |  |  | 
2 | CN1CCC[C@H]1c1cccnc1 [nicotine, (S)-(−)-nicotine] |  |  | ≥ 20 h | 2 to 3 h | 1 to 12 nM | 60 nM | 2.8 nM
